Results on one compound are retold here after patent publication US8889729B2, “Compositions for treating amyloid associated diseases” (Tel Aviv University Future Technology Development L.P., priority 2004, dated 2014).

pIC50: −log10 of the molar value.

The test system of one data set is PC12 cells. As to the kind of experiment: Aβ1-40 cytotoxicity on PC12 cells, MTT assay. Format: cell-based. Particulars: both assays (T=0 and after 7 days incubation). How it is done: Cell culture: PC12 pheochromocytoma cell line, a cultured benign tumor of the sympathetic nervous system, was routinely grown in Dulbecco's Modified Eagle Medium (DMEM) supplemented with 8% (v/v) fetal calf serum, 8% (v/v) horse serum, 100 U/ml penicillin, 100 U/ml streptomycin, and 2 mM L-glutamine (Biological industries, Israel). The cells were maintained at 37° C. in a humidified atmosphere containing 5% CO2. Cell cytotoxicity assay: PC-12 cells (3×10^5 cells/ml) were cultured in 96-well microplates (100 μl/well) and were incubated overnight at 37° C. The wells were then washed once with serum free-DMEM, so as to exclude the effect of the serum. To each well 100 μl of 5 μM Aβ1-40 (prepared from a stock solution of 0.5 mM in 10 mM NaOH) and an indole derivative at various concentrations were added. Each determination was made in quadruplicate. Following incubation for 24 hours at 37° C., cell viability was evaluated using the MTT assay (as described in Hansen et al. (1989) J. Immunol. Methods 119, 203-210). The effect of the indole derivatives on the formation of cytotoxic amyloid assemblies was determined by measuring the toxicity of the formed Aβ on pheochromocytoma cell line cultures (PC12) in the presence and absence of the indole derivatives. […] Cell viability was determined after 24 hours using the MTT assay. Cells incubated with only 5 μM Aβ1-40 served as the control.
(In general: Tetrazolium assays rely on reduction of a dye to a coloured formazan, in cell work by metabolically active cells.)

The target of another data set is T1, Aβ1-40 (Homo sapiens, UniProt P05067).
T1 construct: Synthetic lyophilized β-amyloid polypeptides (Aβ 1-40 and Aβ 1-42, >98% pure); purchased Bachem (Bubendorf, Switzerland); host or cells: chemical synthesis
As to the kind of experiment: AFM structural analysis of Aβ1-40 samples from kinetic studies. Particulars: 50 μM compound, once control samples reached the polymerization phase. How it is done: Atomic force microscopy (AFM): For each experiment, a 60 μl sample of was taken for AFM measurement at three different time points correlating to the amyloidogenic kinetic curve, as detailed hereinafter. The sample was centrifuged for 1.5 minutes at 13,000 rpm and 40 μl of the supernatant was removed. The remaining 20 μl droplet of the solution was re-suspended and deposited onto freshly cleaved mica for 1.5 minutes. The substrate was washed with 160 μl of double-distilled H2O to reduce background and to eliminate salts and buffer contaminants. The mica samples were then dried at room temperature. At least four regions of the mica surface were examined to ensure that similar structures existed throughout the sample. AFM images were obtained using a Veeco NanoScope IV MultiMode AFM (Digital Instruments, Santa Barbara, USA) in tapping mode. Measurements were performed at a resonance frequency of about 321.4 kHz.
Additional structural analyses were performed using AFM measurements, performed with Aβ1-40 samples taken from the kinetic studies once the control samples reached the different fibrillogenesis phase.

For a further data set, the target named is T2, Aβ 1-40 polypeptide (Homo sapiens, UniProt P05067).
T2 construct: Recombinant β-amyloid (Aβ 1-40, >98% pure) polypeptide; purchased rPeptide (Athens Ga., USA)
In words: Thioflavin T fluorescence assay of Aβ 1-40 fibrillization (Example 1). The following applies: 10 μM compound. Type of data set: biochemical. How it is done: Fibrillization of Aβ 1-40 polypeptide was monitored using a Thioflavin T (ThT) dye binding assay. […] Fluorescence measurements, made after addition of the ThT solution to each sample at 37° C., were carried out using a Jobin Yvon FluoroMax-3 spectrometer (excitation 450 nm, 2.5 nm slit; emission 480 nm, 5 nm slit, integration time of 1 second). Background was subtracted from each sample. The level of amyloid formation was detected using the above described Thioflavin T (ThT) dye binding assay.

Another data set concerns the target T3, Aβ 1-42 (Homo sapiens, UniProt P05067).
T3 construct: Aβ 1-40 and Aβ 1-42, >98% pure) were purchased from Bachem; purchased Bachem (Bubendorf, Switzerland); host or cells: chemical synthesis
In words: Thioflavin T fluorescence assay of Aβ 1-42 fibrillization (Example 2). Format: biochemical. How it is done:
Aβ solutions: Synthetic lyophilized β-amyloid polypeptides (Aβ 1-40 and Aβ 1-42, >98% pure) were purchased from Bachem (Bubendorf, Switzerland). A 100 μM Aβ stock solution was prepared by dissolving Aβ1-40 or Aβ1-42 in dimethylsulfoxide (DMSO) and sonicating the resulting solution during 1 minute to avoid pre-aggregation. Aβ solutions were prepared by immediate dilution with 10 mM phosphate-buffered saline (100 mM NaCl, 0.5 mM EDTA, pH 7.4) to a final concentration of 10 μM (containing 10% (v/v) DMSO).
Indole derivatives stock solutions were prepared by dissolving an indole derivative in DMSO, so as to achieve a concentration of 20 mM and then diluting the solution with 10 mM PBS buffer (100 mM NaCl, 0.5 mM EDTA, pH 7.4) to a final concentration of 100 μM (containing 0.5% (v/v) DMSO).
Thioflavin T fluorescence assay: Fibrillization of A[…] 1-42 polypeptide was monitored using a Thioflavin T (ThT) dye binding assay. A 10 μM Aβ solution (either Aβ1-40 or Aβ1-42) was prepared as described above and was immediately mixed with the indole derivative stock solutions (100 μM), so as to achieve a final concentration of 5 μM for Aβ and various concentrations of the indole derivative. For each measurement, ThT was added to a 0.1 ml sample, to give a final concentration of 0.3 μM ThT and 0.4 μM Aβ. The samples were incubated at 37° C. Fluorescence measurements, made after addition of the ThT solution to each sample at 37° C., were carried out using a Jobin Yvon FluoroMax-3 spectrometer (excitation 450 nm, 2.5 nm slit; emission 480 nm, 5 nm slit, integration time of 1 second). Background was subtracted from each sample. Each experiment was repeated in quadruplicate.
Inhibition of amyloid formation: The level of amyloid formation was detected using the above described Thioflavin T (ThT) dye binding assay. Fluorescence (relative intensity, measured in units of percent) of the ThT bound Aβ 1-42 remaining following 24 hours at 37° C., in the absence, and in the presence of 50 μM indole or indole derivative, was measured. Each measurement was recorded immediately after the fluorescence intensity reached a maximum value. The results obtained with representative indole derivatives, each representing a mean of four independent measurements along with an associated error bar representing a standard error, are graphically presented in FIG. 4.
Concentration Dependence of Indole Derivatives inhibition activity: To examine the inhibition efficiency of the indole derivatives, the concentration dependence of inhibition of fibril formation was studied. The fibrillization of Aβ1-42, with and without an indole derivative was measured using the ThT fluorescence assay described above at a fixed incubation time of 24 hours.

T2 sequence (P05067 672-711 limits assumed): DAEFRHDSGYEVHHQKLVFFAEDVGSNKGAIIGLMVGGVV
T3 sequence (P05067 672-713 limits assumed): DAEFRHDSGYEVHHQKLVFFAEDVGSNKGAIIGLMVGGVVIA
T1 sequence (P05067 672-711 limits assumed): as the sequence (P05067 672-711 limits assumed) above

In general, pIC50 refers to the negative decadic logarithm of the IC50, by convention in mol/L. `OCc1c[nH]c2ccccc12` [indole-3-carbinol]: the “inhibitory effect on Aβ1-40 cytotoxicity” value with PC12 cells is “No significant inhibition of cytotoxicity”. Moreover, the “amyloid fibril formation by AFM” value at Aβ1-40 was “small amounts of amyloid fibrils in the form of long wires”. Besides, at Aβ 1-40 polypeptide (5 μM Aβ 1-40), the “level of fluorescence at the plateau compared to non-inhibited Aβ 1-40” value is “about a third”. Further, at Aβ 1-40 polypeptide (5 μM Aβ 1-40, 37° C., without compound about 200 hours), the “time to attainment of fluorescence plateau” value was “about 300 hours”. The “levels of ThT fluorescence following about 100 hours” value on Aβ 1-40 polypeptide (5 μM Aβ 1-40, remaining duration of assay) is recorded as “significantly lower levels of fluorescence”. Besides, the lag-time of fibrillization result at Aβ 1-40 polypeptide (5 μM Aβ 1-40, control lag-phase about 100 hours) is recorded as “significantly extended”. Besides, on Aβ 1-42 (50 μM compound, 5 μM Aβ 1-42, 24 hours at 37° C.), the “inhibition of β-amyloid polypeptide fibril formation” value is “significantly inhibited”. Also, the “concentration dependence of inhibition of fibril formation” value on Aβ 1-42 (Aβ1-42, fixed incubation time of 24 hours) is “only at high concentrations and showed no dose-dependency”. The pIC50 on Aβ 1-42 (Aβ1-42 fibrillization, 24 hours, calculated by the curve equation, read-out: apparent IC50) was ~3.70.
